Values of other authors as cited in US20240350591A1, “COMPOSITION AND METHODS OF TREATMENT USING […]-ENHANCED SUPPLEMENTATION” (Xygenyx Inc., priority 2023, published 2024).
Non-standard residues stand in square brackets, D forms with d. Residues, ends and D or L forms follow the SMILES beside them. ξ: configuration not given here. Cit = NC(=O)NCCC[C@H](N)C(=O)O; Ile(3ξ) = CCC(C)[C@H](N)C(=O)O

Assays:
[1] = patients who did not respond to traditional antidepressant medications
[2] = transdermal route
[3] = test system: wide dynamic range neurons in the ventroposterolateral nucleus of the thalamus; settings: in vivo
skin [4] = settings: topical, concentrations 0.5-5%
skin [5] = settings: topical formulations, within four weeks of treatment
F2-isoprostane = settings: large doses of 1600-3200 IU/day
[6] = compared to α-tocopherol = 1.0
[7] = not given; remark: listed apart in the source
[8] = dietary intake in equal portions
markers of inflammation = settings: individuals with metabolic syndrome
[9] = in vivo

For `CN1c2c([nH]c(N)nc2=O)NCC1CNc1ccc(C(=O)N[C@@H](CCC(=O)O)C(=O)O)cc1` (some centres unmarked) [5-MTHF, 5-methyltetrahydrofolate], the symptoms of depression [1] is given as “improved”.

For `CC(C)[C@@H]1CC[C@@H](C)C[C@H]1O` [Menthol], the “factor of increase of drug uptake” value [2] is given as no less than 10.

For `CCCCCc1cc(O)c2c(c1)OC(C)(C)C1CCC(C)=CC21` (centres unmarked) [THC, Δ-9-tetrahydrocannabinol], the “power in mediating pain relative to morphine” value [3] is given as “ten times”.

In the case of `C=CCCCCCCCCC(=O)N[C@@H](Cc1ccccc1)C(=O)O` [UP, Undecylenoyl phenylalanine], the “time of treatment to skin lightening effects” value (skin [4]) is given as no less than 7 days.

In the case of `CC12CCC(CC1)C(C)(C)O2` [eucalyptol, 1,8-epoxy-p-menthane], the “factor of increase of drug uptake” value [2] is given as “more than 10”.

In the case of `CCC(C)[C@H](NC(=O)[C@H](CC(=O)O)NC(=O)[C@@H](N)CCCCN)C(=O)N[C@@H](CCCNC(N)=O)C(N)=O` (some centres unmarked) [tripeptide-10 citrulline, Tripeptide-10 citrulline] (H-KD[Ile(3ξ)][Cit]-NH2), the improvement of suppleness (skin [5]) is listed as no more than 54%.

For `Cc1c(C)c2c(c(C)c1O)CC[C@@](C)(CCC[C@H](C)CCC[C@H](C)CCCC(C)C)O2` [α-tocopherol], the “reduction of risk of coronary disease” value (dietary supplementation, doses up to 400 IU/day) is given as “up to 34%”, the “reduction of risk of developing neurodegenerative diseases (Alzheimer's Syndrome or dementia)” value (dietary supplementation, doses up to 400 IU/day, controlled trials) is given as no more than 24% and the “reduction in the development of age-related cataracts” value (in combination with 10-20 mg β-carotene and 400-500 mg vitamin C, doses around 400-500 IU) is given as 23%. For the same compound, the “blood plasma concentration of F2-isoprostane” value (F2-isoprostane) was “significantly lower” and the relative biological activity [6] was 1.0.

In the case of `C=C1CC/C=C(\C)CC[C@@H]2[C@@H]1CC2(C)C` [β-caryophyllene], the “increases of protein carbonyl groups and myeloperoxidase activity in the liver and plasma” value ([7]; arthritic subjects) is listed as “eliminated”, the “number of circulating and articular leukocytes” value ([7]; rheumatoid arthritis) is listed as “reduced” and the “swelling of joints and lymph nodes” value ([7]; rheumatoid arthritis) is listed as “reduced”.

In the case of `Cc1cc(O)c(C)c2c1O[C@](C)(CCC[C@H](C)CCC[C@H](C)CCCC(C)C)CC2` [β-tocopherol], the relative biological activity [6] is listed as 0.5.

In the case of `Cc1c(O)cc2c(c1C)O[C@](C)(CCC[C@H](C)CCC[C@H](C)CCCC(C)C)CC2` [γ-tocopherol], the relative biological activity [6] is given as 0.1 and the “concentration in vivo relative to α-tocopherol” value [8] is given as “roughly 10%”.

In the case of `Cc1cc(O)cc2c1O[C@](C)(CCC[C@H](C)CCC[C@H](C)CCCC(C)C)CC2` [δ-tocopherol], the relative biological activity [6] is given as 0.03 and the “markers of inflammation in the blood” value (markers of inflammation) is given as “reduced”.

In the case of “HGH: hormone comprising a peptide chain that is synthesized in the pituitary gland”, the biological half-life [9] is given as 10-20 minutes.
